According to patent EP4678638A1, “NEW E3 UBIQUITIN LIGASE LIGAND, PROTEIN DEGRADATION AGENT AND USE THEREOF” (priority 2023, dated 2024):

Columns and labels:
IKZF1 = biological target: T1, IKZF1 (Homo sapiens, UniProt Q13422+Q96SW2); assay: Western blot degradation of IKZF1 (hPBMC); assay type: cell-based; conditions: Table D16
T1 construct: evaluate the effects of the compounds of the present disclosure on the expression of target proteins in cells; endogenous in cells; host or cells: hPBMC
Procedure, shortened: (§1)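 Degradation is assessed by immunoblotting lysates of treated cells. Target bands are quantified by grayscale and normalised to an internal control, so degradation rate equals 100% minus % remaining.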

IKZF2 = biological target: T2, IKZF2 (Homo sapiens, UniProt Q96SW2+Q9UKS7); assay: Western blot degradation of IKZF2 (hPBMC); assay type: cell-based; conditions: Table D16
T2 construct: evaluate the effects of the compounds of the present disclosure on the expression of target proteins in cells; endogenous in cells; host or cells: hPBMC
Procedure, shortened: as §1

WEE1 = biological target: T3, WEE1 (Homo sapiens, UniProt P30291+Q96SW2); assay: Western blot degradation of WEE1 (hPBMC); assay type: cell-based; conditions: Table D16
T3 construct: evaluate the effects of the compounds of the present disclosure on the expression of target proteins in cells; endogenous in cells; host or cells: hPBMC
Procedure, shortened: as §1

IKZF3 = biological target: T4, IKZF3 (Homo sapiens, UniProt Q96SW2+Q9UKT9); assay: Western blot degradation of IKZF3 (hPBMC); assay type: cell-based; conditions: Table D16
T4 construct: evaluate the effects of the compounds of the present disclosure on the expression of target proteins in cells; endogenous in cells; host or cells: hPBMC
Procedure, shortened: as §1

[1] = biological target: T5, human Cereblon WT GST-tagged protein (Homo sapiens, UniProt Q96SW2); assay: CRBN binding, HTRF (CEREBLON BINDING kit); conditions: Table II-2, CRBN binding screening, HTRF
T5 construct: purchased CISBIO 64BDCRBNPEH
Procedure, shortened: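 After 3 h at room temperature, emission at 665 and 620 nm was measured in a homogeneous time-resolved fluorescence format. Compounds competed with a Thalidomide-Re probe for GST-tagged wild-type human CRBN, which was labelled with a Eu anti-GST antibody.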

CK1a = biological target: T6, CK1a (Homo sapiens, UniProt P48729+Q96SW2); assay: Western blot degradation of CK1a (hPBMC); assay type: cell-based; conditions: Table D16
T6 construct: evaluate the effects of the compounds of the present disclosure on the expression of target proteins in cells; endogenous in cells; host or cells: hPBMC
Procedure, shortened: as §1

GSPT1 = biological target: T7, GSPT1 (Homo sapiens, UniProt P15170+Q96SW2); assay: Western blot degradation of GSPT1 (hPBMC); assay type: cell-based; conditions: Table D16
T7 construct: evaluate the effects of the compounds of the present disclosure on the expression of target proteins in cells; endogenous in cells; host or cells: hPBMC
Procedure, shortened: as §1

MCF7 = assay: CCK-8 proliferation, MCF7 (MCF-7); assay type: cell-based; conditions: Homo sapiens, MCF7; CCK-8; read-out: Inhibitory activity (IC50) on tumor cell proliferation, MCF-7
Procedure, shortened: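 CCK-8 viability readout; IC50 from growth-inhibition curve fitting. Cells plated, dosed 24h later with a 10-point series, top 10µM, 5-fold steps. Culture at 37°C, 5% CO2.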

T4 sequence (Q9UKT9 whole entry): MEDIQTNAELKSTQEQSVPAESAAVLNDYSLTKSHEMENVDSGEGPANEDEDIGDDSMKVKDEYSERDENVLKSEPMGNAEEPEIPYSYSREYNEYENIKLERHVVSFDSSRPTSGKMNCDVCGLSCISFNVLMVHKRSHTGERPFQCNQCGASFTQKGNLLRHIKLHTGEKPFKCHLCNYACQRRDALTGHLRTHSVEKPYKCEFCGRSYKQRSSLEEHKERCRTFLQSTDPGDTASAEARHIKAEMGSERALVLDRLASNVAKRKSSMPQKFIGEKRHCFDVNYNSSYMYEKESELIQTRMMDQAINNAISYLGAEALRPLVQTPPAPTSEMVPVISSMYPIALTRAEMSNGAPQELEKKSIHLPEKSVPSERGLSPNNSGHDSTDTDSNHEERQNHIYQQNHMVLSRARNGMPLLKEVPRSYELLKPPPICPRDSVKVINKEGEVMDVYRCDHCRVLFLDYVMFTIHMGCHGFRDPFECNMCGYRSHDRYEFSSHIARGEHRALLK
T4 sequence (Q96SW2 whole entry): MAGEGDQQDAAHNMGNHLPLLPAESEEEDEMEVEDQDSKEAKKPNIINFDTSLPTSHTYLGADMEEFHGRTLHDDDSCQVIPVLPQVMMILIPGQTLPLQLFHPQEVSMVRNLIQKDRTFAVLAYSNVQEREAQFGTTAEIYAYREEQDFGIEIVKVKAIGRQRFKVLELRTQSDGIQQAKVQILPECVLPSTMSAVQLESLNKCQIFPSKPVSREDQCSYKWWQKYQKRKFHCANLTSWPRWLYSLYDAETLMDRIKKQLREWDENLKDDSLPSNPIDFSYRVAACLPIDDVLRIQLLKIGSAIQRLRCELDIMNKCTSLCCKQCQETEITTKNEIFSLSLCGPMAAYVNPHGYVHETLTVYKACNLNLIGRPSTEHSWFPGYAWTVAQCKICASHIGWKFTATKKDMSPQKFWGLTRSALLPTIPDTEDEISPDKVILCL
T4 sequence (Q16531 whole entry partner): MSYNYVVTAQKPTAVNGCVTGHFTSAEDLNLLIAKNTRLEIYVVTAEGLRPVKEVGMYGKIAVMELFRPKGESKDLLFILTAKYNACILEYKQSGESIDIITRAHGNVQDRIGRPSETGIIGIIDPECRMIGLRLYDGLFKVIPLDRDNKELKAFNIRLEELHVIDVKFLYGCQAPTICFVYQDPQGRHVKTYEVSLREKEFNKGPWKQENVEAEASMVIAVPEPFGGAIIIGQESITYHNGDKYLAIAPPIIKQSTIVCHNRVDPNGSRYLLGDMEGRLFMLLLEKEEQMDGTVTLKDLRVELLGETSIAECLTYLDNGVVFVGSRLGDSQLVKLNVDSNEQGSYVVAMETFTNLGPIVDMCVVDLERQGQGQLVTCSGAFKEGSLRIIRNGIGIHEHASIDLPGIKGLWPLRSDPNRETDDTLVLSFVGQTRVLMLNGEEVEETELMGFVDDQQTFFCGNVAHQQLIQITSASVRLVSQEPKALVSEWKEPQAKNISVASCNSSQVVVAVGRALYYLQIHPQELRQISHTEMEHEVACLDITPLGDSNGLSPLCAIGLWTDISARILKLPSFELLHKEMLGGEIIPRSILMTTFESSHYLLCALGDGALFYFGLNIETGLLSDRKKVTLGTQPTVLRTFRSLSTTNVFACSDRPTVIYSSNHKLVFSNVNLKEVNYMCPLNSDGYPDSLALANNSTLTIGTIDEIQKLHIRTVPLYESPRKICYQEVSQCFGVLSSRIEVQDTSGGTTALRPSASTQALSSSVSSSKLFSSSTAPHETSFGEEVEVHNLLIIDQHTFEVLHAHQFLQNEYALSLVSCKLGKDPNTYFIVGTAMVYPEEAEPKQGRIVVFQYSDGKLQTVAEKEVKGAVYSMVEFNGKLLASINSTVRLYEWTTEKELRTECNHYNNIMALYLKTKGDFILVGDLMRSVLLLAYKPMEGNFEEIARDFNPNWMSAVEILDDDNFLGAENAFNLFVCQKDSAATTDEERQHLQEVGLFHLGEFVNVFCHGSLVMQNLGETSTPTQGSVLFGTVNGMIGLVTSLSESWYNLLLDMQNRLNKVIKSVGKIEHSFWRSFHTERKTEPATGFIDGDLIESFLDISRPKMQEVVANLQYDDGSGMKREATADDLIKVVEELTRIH
T1 sequence (Q13422 whole entry): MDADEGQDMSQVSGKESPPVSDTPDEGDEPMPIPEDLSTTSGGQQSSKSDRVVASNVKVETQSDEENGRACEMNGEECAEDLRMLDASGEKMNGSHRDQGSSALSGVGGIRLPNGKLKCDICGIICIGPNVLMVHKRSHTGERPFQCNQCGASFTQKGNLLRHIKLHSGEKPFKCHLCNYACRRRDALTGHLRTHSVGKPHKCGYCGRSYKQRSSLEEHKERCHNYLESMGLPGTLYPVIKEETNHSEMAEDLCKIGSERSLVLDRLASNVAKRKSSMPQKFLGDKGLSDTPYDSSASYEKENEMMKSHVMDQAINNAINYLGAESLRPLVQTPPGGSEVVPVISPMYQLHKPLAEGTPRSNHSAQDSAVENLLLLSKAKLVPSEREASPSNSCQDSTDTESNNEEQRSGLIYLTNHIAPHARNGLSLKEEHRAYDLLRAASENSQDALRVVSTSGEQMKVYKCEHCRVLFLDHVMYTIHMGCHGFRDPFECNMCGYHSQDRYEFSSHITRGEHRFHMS
T1 sequence (Q96SW2 whole entry): as the sequence (Q96SW2 whole entry) above
T1 sequence (Q16531 whole entry partner): as the sequence (Q16531 whole entry partner) above
T6 sequence (P48729 whole entry): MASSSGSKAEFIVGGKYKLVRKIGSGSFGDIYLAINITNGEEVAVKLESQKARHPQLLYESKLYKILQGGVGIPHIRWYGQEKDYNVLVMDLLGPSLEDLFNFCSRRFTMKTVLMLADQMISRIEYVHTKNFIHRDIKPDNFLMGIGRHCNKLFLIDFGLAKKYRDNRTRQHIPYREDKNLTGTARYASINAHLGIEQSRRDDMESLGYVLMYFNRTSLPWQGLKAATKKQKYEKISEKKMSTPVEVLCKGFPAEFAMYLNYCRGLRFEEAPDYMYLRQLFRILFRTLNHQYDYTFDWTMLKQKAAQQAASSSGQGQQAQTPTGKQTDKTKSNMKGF
T6 sequence (Q96SW2 whole entry): as the sequence (Q96SW2 whole entry) above
T6 sequence (Q16531 whole entry partner): as the sequence (Q16531 whole entry partner) above
T3 sequence (P30291 whole entry): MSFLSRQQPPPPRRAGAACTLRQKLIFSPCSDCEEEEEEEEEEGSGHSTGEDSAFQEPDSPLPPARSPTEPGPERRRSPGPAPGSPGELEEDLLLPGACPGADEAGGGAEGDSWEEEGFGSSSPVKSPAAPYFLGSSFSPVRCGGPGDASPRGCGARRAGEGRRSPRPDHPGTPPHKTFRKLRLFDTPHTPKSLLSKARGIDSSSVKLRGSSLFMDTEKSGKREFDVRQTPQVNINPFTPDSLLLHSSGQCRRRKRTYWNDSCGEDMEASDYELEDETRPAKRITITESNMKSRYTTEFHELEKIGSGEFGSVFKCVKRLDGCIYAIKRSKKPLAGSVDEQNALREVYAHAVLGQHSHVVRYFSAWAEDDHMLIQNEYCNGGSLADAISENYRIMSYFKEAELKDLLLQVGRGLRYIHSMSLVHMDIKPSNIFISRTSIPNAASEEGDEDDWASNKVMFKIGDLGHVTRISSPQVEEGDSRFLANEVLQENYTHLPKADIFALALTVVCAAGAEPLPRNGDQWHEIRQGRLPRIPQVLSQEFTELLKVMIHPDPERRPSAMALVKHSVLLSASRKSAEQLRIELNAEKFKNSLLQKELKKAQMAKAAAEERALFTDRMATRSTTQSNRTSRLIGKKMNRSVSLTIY
T3 sequence (Q96SW2 whole entry): as the sequence (Q96SW2 whole entry) above
T3 sequence (Q16531 whole entry partner): as the sequence (Q16531 whole entry partner) above
T7 sequence (P15170 whole entry): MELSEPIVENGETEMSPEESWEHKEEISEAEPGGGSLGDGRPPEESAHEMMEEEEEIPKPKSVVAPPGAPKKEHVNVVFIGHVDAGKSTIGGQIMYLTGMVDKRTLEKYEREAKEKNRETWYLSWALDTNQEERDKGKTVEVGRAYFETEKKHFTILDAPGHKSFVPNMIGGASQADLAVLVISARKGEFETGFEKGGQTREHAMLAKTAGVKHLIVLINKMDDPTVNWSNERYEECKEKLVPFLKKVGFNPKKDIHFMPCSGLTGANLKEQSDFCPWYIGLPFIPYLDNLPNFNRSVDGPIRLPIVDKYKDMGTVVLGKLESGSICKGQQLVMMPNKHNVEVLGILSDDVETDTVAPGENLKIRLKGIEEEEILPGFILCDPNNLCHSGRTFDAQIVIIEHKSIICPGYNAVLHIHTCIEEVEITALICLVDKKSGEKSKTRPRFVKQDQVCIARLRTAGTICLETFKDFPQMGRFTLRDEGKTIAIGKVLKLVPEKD
T7 sequence (Q96SW2 whole entry): as the sequence (Q96SW2 whole entry) above
T7 sequence (Q16531 whole entry partner): as the sequence (Q16531 whole entry partner) above
T5 sequence (Q96SW2 whole entry): as the sequence (Q96SW2 whole entry) above

| Structure (SMILES) | inhibition at 0.5 µM ([1]; at 0.5µM, read-out: Inhibition rate (%) at 0.5µM) [%] | inhibition at 2 µM ([1]; at 2 µM, read-out: Inhibition rate (%) at 2 µM) [%] | IC50 (MCF7) [nM] | Degradation of substrate protein IKZF1 (substrate protein remaining %) (IKZF1) | Degradation of substrate protein IKZF2 (substrate protein remaining %) (IKZF2) | Degradation of substrate protein WEE1 (substrate protein remaining %) (WEE1) | Degradation of substrate protein IKZF3 (substrate protein remaining %) (IKZF3) | Degradation of substrate protein CKla (substrate protein remaining %) (CK1a) | Degradation of substrate protein GSPT1 (substrate protein remaining %) (GSPT1) |
| --- | --- | --- | --- | --- | --- | --- | --- | --- | --- |
| O=C1CCC(c2cncc(CCl)c2)C(=O)N1 (centres unmarked) [GT-06991, 3-(5-(Chloromethyl)pyridin-3-yl)piperidine-2,6-dione] | 30 to 40 | 53 to 60 | – | B (B is defined as substrate protein remaining % > 80%) | A (A is defined as 0% ≤ substrate protein remaining % ≤ 80%) | B (B is defined as substrate protein remaining % > 80%) | B (B is defined as substrate protein remaining % > 80%) | B (B is defined as substrate protein remaining % > 80%) | B (B is defined as substrate protein remaining % > 80%) |
| O=C1CCC(c2cnc(CO)c(F)c2)C(=O)N1 (centres unmarked) [GT-07049, 3-(5-Fluoro-6-(hydroxymethyl)pyridin-3-yl)piperidine-2,6-dione] | – | – | 1000 to 5000 | B (B is defined as substrate protein remaining % > 80%) | A (A is defined as 0% ≤ substrate protein remaining % ≤ 80%) | B (B is defined as substrate protein remaining % > 80%) | A (A is defined as 0% ≤ substrate protein remaining % ≤ 80%) | A (A is defined as 0% ≤ substrate protein remaining % ≤ 80%) | A (A is defined as 0% ≤ substrate protein remaining % ≤ 80%) |
| NCc1cncc(N2CCC(=O)NC2=O)c1 [GT-07077, 1-(5-(Aminomethyl)pyridin-3-yl)dihydropyrimidine-2,4(1H,3H)-dione] | – | – | 1000 to 5000 | B (B is defined as substrate protein remaining % > 80%) | B (B is defined as substrate protein remaining % > 80%) | B (B is defined as substrate protein remaining % > 80%) | B (B is defined as substrate protein remaining % > 80%) | B (B is defined as substrate protein remaining % > 80%) | A (A is defined as 0% ≤ substrate protein remaining % ≤ 80%) |
| O=C1CCC(Nc2cc(CO)ccn2)C(=O)N1 (centres unmarked) [GT-07366, 3-((4-(Hydroxymethyl)pyridin-2-yl)amino)piperidine-2,6-dione] | – | – | 1000 to 5000 | B (B is defined as substrate protein remaining % > 80%) | B (B is defined as substrate protein remaining % > 80%) | B (B is defined as substrate protein remaining % > 80%) | B (B is defined as substrate protein remaining % > 80%) | A (A is defined as 0% ≤ substrate protein remaining % ≤ 80%) | A (A is defined as 0% ≤ substrate protein remaining % ≤ 80%) |
| O=C1CCC(c2ncccc2CO)C(=O)N1 (centres unmarked) [GT-07370, 3-(3-(Hydroxymethyl)pyridin-2-yl)piperidine-2,6-dione] | – | – | 1000 to 5000 | B (B is defined as substrate protein remaining % > 80%) | B (B is defined as substrate protein remaining % > 80%) | B (B is defined as substrate protein remaining % > 80%) | B (B is defined as substrate protein remaining % > 80%) | A (A is defined as 0% ≤ substrate protein remaining % ≤ 80%) | A (A is defined as 0% ≤ substrate protein remaining % ≤ 80%) |
| O=C1CCC(Nc2ccc(CO)nc2)C(=O)N1 (centres unmarked) [GT-07446, 3-((6-(Hydroxymethyl)pyridin-3-yl)amino)piperidine-2,6-dione] | – | – | 1000 to 5000 | A (A is defined as 0% ≤ substrate protein remaining % ≤ 80%) | A (A is defined as 0% ≤ substrate protein remaining % ≤ 80%) | A (A is defined as 0% ≤ substrate protein remaining % ≤ 80%) | A (A is defined as 0% ≤ substrate protein remaining % ≤ 80%) | A (A is defined as 0% ≤ substrate protein remaining % ≤ 80%) | A (A is defined as 0% ≤ substrate protein remaining % ≤ 80%) |
| O=C1CCC(Nc2ncc(CO)cn2)C(=O)N1 (centres unmarked) [GT-07809, 3-((5-(Hydroxymethyl)pyrimidin-2-yl)amino)piperidine-2,6-dione] | – | – | – | A (A is defined as 0% ≤ substrate protein remaining % ≤ 80%) | A (A is defined as 0% ≤ substrate protein remaining % ≤ 80%) | A (A is defined as 0% ≤ substrate protein remaining % ≤ 80%) | A (A is defined as 0% ≤ substrate protein remaining % ≤ 80%) | B (B is defined as substrate protein remaining % > 80%) | B (B is defined as substrate protein remaining % > 80%) |

Second part, led by results:

| inhibition at 0.5 µM ([1]; at 0.5µM, read-out: Inhibition rate (%) at 0.5µM) [%] | inhibition at 2 µM ([1]; at 2 µM, read-out: Inhibition rate (%) at 2 µM) [%] | IC50 (MCF7) [nM] | Structure (SMILES) | Degradation of substrate protein IKZF1 (substrate protein remaining %) (IKZF1) | Degradation of substrate protein IKZF2 (substrate protein remaining %) (IKZF2) | Degradation of substrate protein WEE1 (substrate protein remaining %) (WEE1) | Degradation of substrate protein IKZF3 (substrate protein remaining %) (IKZF3) | Degradation of substrate protein CKla (substrate protein remaining %) (CK1a) | Degradation of substrate protein GSPT1 (substrate protein remaining %) (GSPT1) |
| --- | --- | --- | --- | --- | --- | --- | --- | --- | --- |
| – | – | 1000 to 5000 | O=Cc1cccnc1NC1CCC(=O)NC1=O (centres unmarked) [GT-07447, 2-((2,6-Dioxopiperidin-3-yl)amino)nicotinaldehyde] | A (A is defined as 0% ≤ substrate protein remaining % ≤ 80%) | A (A is defined as 0% ≤ substrate protein remaining % ≤ 80%) | A (A is defined as 0% ≤ substrate protein remaining % ≤ 80%) | A (A is defined as 0% ≤ substrate protein remaining % ≤ 80%) | A (A is defined as 0% ≤ substrate protein remaining % ≤ 80%) | A (A is defined as 0% ≤ substrate protein remaining % ≤ 80%) |
| – | – | 1000 to 5000 | O=C1CCC(Nc2ccc(CO)cn2)C(=O)N1 (centres unmarked) [GT-07551, 3-((5-(Hydroxymethyl)pyridin-2-yl)amino)piperidine-2,6-dione] | B (B is defined as substrate protein remaining % > 80%) | A (A is defined as 0% ≤ substrate protein remaining % ≤ 80%) | A (A is defined as 0% ≤ substrate protein remaining % ≤ 80%) | B (B is defined as substrate protein remaining % > 80%) | B (B is defined as substrate protein remaining % > 80%) | B (B is defined as substrate protein remaining % > 80%) |
| – | – | 1000 to 5000 | O=Cc1cncc(NC2CCC(=O)NC2=O)c1 (centres unmarked) [GT-07554, 5-((2,6-Dioxopiperidin-3-yl)amino)nicotinaldehyde] | A (A is defined as 0% ≤ substrate protein remaining % ≤ 80%) | A (A is defined as 0% ≤ substrate protein remaining % ≤ 80%) | A (A is defined as 0% ≤ substrate protein remaining % ≤ 80%) | A (A is defined as 0% ≤ substrate protein remaining % ≤ 80%) | A (A is defined as 0% ≤ substrate protein remaining % ≤ 80%) | B (B is defined as substrate protein remaining % > 80%) |
| – | – | 1000 to 5000 | O=C1CCN(c2cnc(CO)c(F)c2)C(=O)N1 [GT-07555, 1-(5-Fluoro-6-(hydroxymethyl)pyridin-3-yl)dihydropyrimidine-2,4(1H,3H)-dione] | A (A is defined as 0% ≤ substrate protein remaining % ≤ 80%) | A (A is defined as 0% ≤ substrate protein remaining % ≤ 80%) | A (A is defined as 0% ≤ substrate protein remaining % ≤ 80%) | A (A is defined as 0% ≤ substrate protein remaining % ≤ 80%) | A (A is defined as 0% ≤ substrate protein remaining % ≤ 80%) | A (A is defined as 0% ≤ substrate protein remaining % ≤ 80%) |
